From patent publication US20220213198A1, “METHOD OF TREATMENT” (The Council of the Queensland Institute of Medical Research, priority 2019, published 2022) come the findings set out here.

The test system of one assay is NK cells. Kind of assay: Ex vivo NK cell effector function in tumor-bearing lungs (IFNγ, CD107a). Also on record: species or system mouse. The method, then:
FIG. 3. Upregulation of surface MR1 on tumor cells suppresses NK cell function through MAIT cells. (A) Schematic to analyze NK effector function in the lungs of C57BL/6 WT or MR1^−/− mice injected with 5-OP-RU-pulsed B16F10 or LWT1 cells. On day 5 relative to tumor inoculation, lungs were harvested from the indicated groups of mice (n=5-6/group) and stimulated with PMA/ionomycin plus protein transport inhibitors and NK cell effector function was assessed by flow cytometry. (B) Representative contour plots of IFNγ staining in NK cells (NKp46^+ NK1.1^+ TCRβ^− CD45.2^+) and (C) the proportion and MFI of IFNγ^+ NK cells amongst total NK cells in B16F10-bearing lungs. (D) Representative contour plots of CD107a staining in NK cells and (E) the proportion and MFI of CD107a^+ NK cells amongst total NK cells in B16F10 tumor-bearing lungs. (F) Representative contour plots of IFNγ staining in NK cells and (G) the proportion and MFI of IFNγ^+ NK cells amongst total NK cells in LWT1 tumor-bearing lungs. (H) Representative contour plots of CD107a staining in NK cells and (I) the proportion and MFI of CD107a^+ NK cells amongst total NK cells in the LWT1-bearing lungs. Data presented as mean±SEM. Significant differences between groups as indicated by crossbars were determined using a one-way ANOVA followed by Tukey's post-hoc test, *p<0.05, **p<0.01, ***p<0.001, ****p<0.0001.
(§1) FIG. 4. Upregulation of MR1 on B16F10 activates MAIT cells to suppress NK cell effector function through IL-17. (A) Schematic to analyze MAIT or NK cell effector function in the lungs of C57BL/6 WT or MR1^−/− mice injected with 5-OP-RU- or DMSO-stimulated B16F10 melanoma cells. On day 5 relative to tumor inoculation, lungs were harvested and stimulated with PMA/ionomycin plus protein transport inhibitors for 4 hours and MAIT or NK cell function was assessed by flow cytometry. (B) The proportion of CD69^+ MAIT cells amongst total MAIT cells (B220^− F4/80^− MR1-5-OP-RU tetramer^+ TCRβ^+) in naïve or tumor-bearing lungs. Data presented as mean±SEM. (C) Representative dot plot of IL-17 expression by MAIT cells. The (D) proportion of IL-17^+ MAIT cells amongst total MAIT cells in the lungs of naïve and tumor-bearing mice as indicated. Data presented as mean±SEM. (E) Representative dot plot of TNF expression by MAIT cells. The (F) proportion of TNF MAIT cells and (G) IFNγ^+ MAIT cells amongst total MAIT cells in the lungs of naïve and tumor-bearing mice as indicated. (H, I) On day 5 relative to tumor inoculation, lungs were harvested (n=6/group) and stimulated with PMA/ionomycin plus protein transport inhibitors for 3 hours and NK cell function was assessed by flow cytometry. The proportion of IFNγ^+ NK cells and CD107a^+ NK cells amongst total NK cells (NKp46^+ NK1.1^+ TCRβ^− CD45.2^+) in tumor-bearing C57BL/6 WT or IL-17^−/− mice. Data presented as mean±SEM. (J) Groups of WT or MR1^−/− mice (n=4-6/group) were injected i.v. with 1×10^5 B16F10 melanoma cells. In some groups, sorted MAIT cells (2×10^5 cells/mouse) from C57BL/6 WT or IL-17A^−/− mice were i.v. injected into the indicated groups of mice one day before tumor inoculation. On day 14 relative to tumor cell inoculation, lungs were harvested and the metastatic burden was quantified by counting colonies on the lung surface. Data presented as mean±SEM. Data pooled from two independent experiments for (B, D, F, G). Experiments were performed once for (H-K). Significant differences between groups as indicated by crossbars were determined using a one-way ANOVA followed by Tukey's post-hoc test (B, D, F, J), or a Mann-Whitney test (H, I), *p<0.05, **p<0.01, ***p<0.001, ****p<0.0001.
Single cell suspensions from lungs of the indicated groups were incubated in a 96-well U-bottom plate in complete RPMI 1640 media. Cells were incubated in the presence or absence of cell stimulation cocktail (PMA/ionomycin) plus protein transport inhibitors (Golgistop and Golgiplug) (1000 times dilution) for 3-4 hours as indicated. […]

In a further assay the test system is MAIT cells. The experiment in a line: Ex vivo MAIT cell activation and cytokine profile in tumor-bearing lungs. Also on record: species or system mouse. The following applies: lungs of mice injected with treated vs DMSO-treated B16F10, day 5. The method, then: as §1, with “Data presented as mean±SEM. Data pooled from two independent experiments for (B, D, F, G). Experiments were performed once for (H-K).” left out
Naïve or tumor-bearing lung single-cell suspensions were generated as previously described (Blake et al., 2016) and incubated with anti-CD16/32 (2.4G2) to block Fc receptors on ice prior to surface staining with the antibodies. […] All data were collected on a Fortessa 4 flow cytometer (BD Biosciences) and analyzed with FlowJo v10 software (TreeStar, Inc.).
Single cell suspensions from lungs of the indicated groups were incubated in a 96-well U-bottom plate in complete RPMI 1640 media. […] Briefly, anti-CD107a (1D4B, BioLegend) antibody was added to single cell suspension during the stimulation period before these cells were surface stained and analyzed by flow cytometry.

`CC(=O)C=Nc1c(NC[C@H](O)[C@H](O)[C@H](O)CO)[nH]c(=O)[nH]c1=O` [5-OP-RU]: the “proportions of IFNγ producing and CD107a expressing NK cells” value in the assay with NK cells (IL-17A-/- mice, treated vs DMSO-treated B16F10, day 5) is reported as “this reduction was not observed”. In the assay on NK cells (MR1-/- mice that received treated LWT1), the “NK cell effector function” value is given as “did not manifest”. In addition, the “NK cell effector function” value with NK cells (WT mice that received treated LWT1) is recorded as “suppression of NK cell effector function was observed”. Besides, in the assay with NK cells (lungs of MR1-/- mice, treated vs DMSO-treated B16F10, day 5), the NK cell function entry is recorded as “not suppressed”. Moreover, in the assay on NK cells (lungs of WT mice bearing treated vs DMSO-treated B16F10, day 5), the “proportions of NK cells producing IFNγ and MFI” value is “significantly decreased”. Also, the “proportions of NK cells expressing CD107a and expression levels” value with NK cells (lungs of WT mice, treated vs DMSO-treated B16F10, day 5) is “significantly decreased”. For the same compound, in the assay with MAIT cells, the “proportion of MAIT cells producing IFNγ” value is “did not change”, the “proportion of MAIT cells that expressed CD69” value is listed as “increased proportion”, the “proportion of MAIT cells that expressed IL-17A” value is given as “increased proportion” and the “proportion of MAIT cells that expressed TNF” value is “increased proportion”.
